Measurements reported in publication PMC4814829, “Design, synthesis, crystallization and biological evaluation of new symmetrical biscationic compounds as selective inhibitors of human Choline Kinase α1 (ChoKα1)” (Scientific Reports, 2016).

Assays:
MDA-MB-231 cells [1] = test: Annexin-V/PI assay; format: cell-based, human; settings: MDA-MB-231, 72 h; positive controls Cis-Pt 50 μM, Etoposide 5 μM
Procedure: (§1) Surface exposure of PS on apoptotic cells was measured by flow cytometry with Cytomics FC500 (Beckman Coulter) by adding simultaneously annexin-V conjugated to fluorescein isothiocyanate (FITC) and PI to cells according to the manufacturer′s instructions (Annexin-V Fluos, Roche Diagnostic).

Jurkat cells [2] = test: Annexin-V/PI assay; format: cell-based, human; settings: 72 h, positive controls Cis-Pt 50 μM, Etoposide 5 μM
Procedure: as §1

MCF-7 cells [3] = test: Annexin-V/PI assay; format: cell-based, human; settings: MCF-7, 72 h; positive controls Cis-Pt 50 μM, Etoposide 5 μM
Procedure: as §1

HL-60 cells = test: Antiproliferative MTT assay; format: cell-based; settings: Homo sapiens, 72 h, mean ± SEM
Procedure: (§2) Human T-cell leukemia (Jurkat), human B-cell leukemia (RS 4,11) and human promyelocytic leukemia (HL-60) cells were grown in RPMI-1640 medium (Gibco, Milan, Italy). Breast adenocarcinoma (MCF-7 and MDA-MB-231), human non-small cell lung carcinoma (A549), human cervix carcinoma (HeLa), human prostate adenocarcinoma (PC-3), and human colon adenocarcinoma (HT-29) cells were grown in DMEM medium (Gibco, Milan, Italy). Both media were supplemented with 115 units/mL of penicillin G (Gibco, Milan, Italy), 115 μg/mL of streptomycin (Invitrogen, Milan, Italy) and 10% fetal bovine serum (Invitrogen, Milan, Italy). Stock solutions (10 mM) of the different compounds were obtained by dissolving them in DMSO. Individual wells of 96-well tissue-culture microtiter plates were inoculated with 100 μL of complete medium containing 8 × 10^3 cells. The plates were incubated at 37 °C in a humidified 5% CO2 incubator for 18 h prior to the experiments. After medium removal, 100 μL of fresh medium containing the test compound at different concentrations was added to each well and incubated at 37 °C for 72 h. The percentage of DMSO in the medium in no case exceeded 0.25%.

MDA-MB-231 cells [4] = test: Antiproliferative MTT assay; format: cell-based; settings: Homo sapiens, 72 h, mean ± SEM
Procedure: as §2

Jurkat cells [5] = test: Antiproliferative MTT assay; format: cell-based; settings: Homo sapiens, 72 h, mean ± SEM
Procedure: as §2

HT-29 cells = test: Antiproliferative MTT assay; format: cell-based; settings: Homo sapiens, 72 h, mean ± SEM
Procedure: as §2

RS4,11 cells = test: Antiproliferative MTT assay; format: cell-based; settings: Homo sapiens, 72 h, mean ± SEM
Procedure: as §2

HeLa cells = test: Antiproliferative MTT assay; format: cell-based; settings: Homo sapiens, 72 h, mean ± SEM
Procedure: as §2

MCF-7 cells [6] = test: Antiproliferative MTT assay; format: cell-based; settings: Homo sapiens, MCF7, 72 h, mean ± SEM
Procedure: as §2

A549 cells = test: Antiproliferative MTT assay; format: cell-based; settings: Homo sapiens, 72 h, mean ± SEM
Procedure: as §2

HUVEC = test: Antiproliferative assay in non-tumoral cells; format: cell-based; settings: Homo sapiens, mean ± SEM
Procedure: Human Umbilical Vein Endothelial cells (HUVEC), were prepared from human umbilical-cord veins, as previously described. The adherent cells were maintained in M200 medium added by LSGS (low serum growth supplement), containing FBS, hydrocortisone, hEGF, bFGF, heparin, gentamycin/amphotericin (Life Technologies, Monza, Italy). Once confluent, the cells were detached by trypsin–EDTA solution and used in experiments from the first to sixth passages.

MDA-MB-231 cells [7] = test: Cell-cycle distribution analysis (PI, flow cytometry); format: cell-based, human; settings: MDA-MB-231
Procedure: [The source words this procedure for another cell line and reports this cell line under the same test.] For flow-cytometric analysis of the DNA content, 5 × 10^5 HeLa or Jurkat cells in exponential growth were treated with different concentrations of the test compounds for 24 and 48 h. After the incubation period, the cells were collected, centrifuged, and fixed with ice-cold ethanol (70%). The cells were then treated with lysis buffer containing RNAse A and 0.1% Triton X-100, and then stained with propidium iodide (PI). Samples were analyzed in a Cytomics FC500 flow cytometer (Beckman Coulter). DNA histograms were analyzed using MultiCycle for Windows (Phoenix Flow Systems).

PBL (+Pha) = test: Antiproliferative assay in non-tumoral cells (MTT); format: cell-based; settings: Homo sapiens, non-tumoral cells stimulated with phytohematoagglutinin, 72 h, mean ± SEM
Procedure: (§3) Peripheral mononuclear cells (PBMC) from healthy donors were obtained by separation on Lymphoprep (Fresenius KABI Norge AS) gradient. After extensive washing, cells were resuspended (1 × 10^6 cells/mL) in RPMI-1640 with 10% fetal bovine serum and incubated overnight. For cytotoxicity evaluations in proliferating PBL cultures, non-adherent cells were resuspended at 5 × 10^5 cells/mL in growth medium, containing 2.5 μg/mL PHA (Irvine Scientific). Different concentrations of the test compounds were added, and viability was determined 72 h later by the MTT test. For cytotoxicity evaluations in resting PBL cultures, non-adherent cells were resuspended (5 × 10^5 cells/mL) and treated for 72 h with the test compounds, as described above.

PBL (resting) = test: Antiproliferative assay in non-tumoral cells (MTT); format: cell-based; settings: Homo sapiens, 72 h, mean ± SEM
Procedure: as §3

[8] = tested on: breast- and colon-cancer cells; parameters: method as in earlier work; settings: 15 μM; ref 15 (Sanchez-Lopez et al.); cited from earlier work
mice = settings: mouse, in vivo; cited from earlier work

SMILES | Apoptotic cells (annexin-V/PI) (MDA-MB-231 cells [1]) | Apoptotic cells (annexin-V/PI) (Jurkat cells [2]) | Apoptotic cells (annexin-V/PI) (MCF-7 cells [3]) | GI50 (HL-60 cells) [nM] | GI50 (MDA-MB-231 cells [4]) [nM] | GI50 (Jurkat cells [5]) [nM] | GI50 (HT-29 cells) [nM] | GI50 (RS4,11 cells) [nM] | GI50 (HeLa cells) [nM] | GI50 (MCF-7 cells [6]) [nM] | GI50 (A549 cells) [nM] | GI50 (HUVEC) [nM] | Cells with hypodiploid DNA content (apoptotic cells by cell-cycle analysis) (MDA-MB-231 cells [7]) | GI50 (PBL (+Pha)) [nM] | GI50 (PBL (resting)) [nM] | Cell-cycle effect (G1 phase) [8] | Toxicity profile and tolerability (mice)
COc1cc([C@@H]2c3cc4c(cc3[C@@H](O[C@@H]3O[C@@H]5CO[C@@H](C)O[C@H]5[C@H](O)[C@H]3O)[C@H]3COC(=O)[C@H]23)OCO4)cc(OC)c1O [Etoposide] | induce significant apoptosis | induce significant apoptosis | induce significant apoptosis | – | – | – | – | – | – | – | – | – | – | – | – | – | –
CN(C)c1cc[n+](Cc2ccc(CCCCc3ccc(C[n+]4ccc(N(C)C)cc4)cc3)cc2)cc1 [MN58b, reference compound] | – | – | – | 320 ± 30 | 310 ± 120 | 350 ± 100 | 1900 ± 400 | 1000 ± 300 | 1900 ± 100 | 1800 ± 60 | 540 ± 200 | 2100 ± 580 | negligible percentage of apoptotic cells | 150 ± 50 | 2000 ± 400 | significant decrease of the G1 phase | –
CN(c1ccc(Cl)cc1)c1cc[n+](Cc2ccc(-c3ccc(C[n+]4ccc(N(C)c5ccc(Cl)cc5)c5ccccc54)cc3)cc2)c2ccccc12 [RSM932A, reference compound] | – | – | – | 930 ± 100 | 170 ± 50 | 410 ± 100 | 400 ± 200 | 170 ± 40 | 830 ± 100 | 180 ± 100 | 450 ± 90 | 460 ± 47 | negligible percentage of apoptotic cells | 230 ± 50 | 1100 ± 90 | significant decrease of the G1 phase | low-toxicity profile with improved tolerability
